Earlier results, collected in patent US9592318B2, “Topical analgesic composition” (Animal Ethics Pty Ltd, priority 2005, dated 2017).

Key:
[1] = following injection
significant open wound = conditions: topical, FIG. 2 area '3'

| Structure (SMILES) | duration of action [1] | duration of anesthesia of open wound (significant open wound) |
| --- | --- | --- |
| CCCCN1CCCCC1C(=O)Nc1c(C)cccc1C (centres unmarked) [bupivacaine] | 6 to 8 h | – |
| CCN(CC)CC(=O)Nc1c(C)cccc1C [Lignocaine] | – | around 30 minutes |
